The MIC is the smallest concentration in the dilution series that meets the test's criterion for growth inhibition. In general, IC50 refers to the concentration that inhibits the measured activity by half. Lower therefore signals higher potency.

One data set concerns MRSA ATCC 43300. Put plainly: MIC, broth microdilution (CO-ADD), MRSA. The note with it: Staphylococcus aureus; MRSA ATCC 43300; top dose 32 µg/mL; read-out: MIC MRSA. It is filed as cell-based, methicillin-resistant S. aureus. On the technique in general: Dilution methods test growth across graded concentrations, often in twofold steps.
As for `O=C(NCCCNCCCCCCNCCCNC(=O)c1c[nH]c2ccccc12)c1c[nH]c2ccccc12.O=C(O)C(F)(F)F.O=C(O)C(F)(F)F` [Compound 12b], the minimum inhibitory concentration (MIC) is not above 0.34 µM.
In the case of `O=C(NCCCNCCCCCCCNCCCNC(=O)c1c[nH]c2ccccc12)c1c[nH]c2ccccc12.O=C(O)C(F)(F)F.O=C(O)C(F)(F)F` [Compound 12c], the MIC is not above 0.33 µM.

The subject of a further data set is K. pneumoniae ATCC 700603. Put plainly: MIC, broth microdilution (CO-ADD), K. pneumoniae. The conditions noted are these: top dose 32 µg/mL.
In the case of `O=C(NCCCNCCCCCCNCCCNC(=O)c1c[nH]c2ccccc12)c1c[nH]c2ccccc12.O=C(O)C(F)(F)F.O=C(O)C(F)(F)F` [Compound 12b], the “MIC Kp” value is on record as more than 43 µM.
For `O=C(NCCCNCCCCCCCNCCCNC(=O)c1c[nH]c2ccccc12)c1c[nH]c2ccccc12.O=C(O)C(F)(F)F.O=C(O)C(F)(F)F` [Compound 12c], the “MIC Kp” value is recorded as more than 42 µM.

Test system in a further data set: not listed separately
Put plainly: Cytotoxicity assay (resazurin). Format: cell-based. The conditions noted are these: human, HEK293 cells, mean n = 2. (In general: Alamar Blue is a resazurin reagent that responds to reducing activity.)
In turn, `O=C(NCCCNCCCCCCNCCCNC(=O)c1c[nH]c2ccccc12)c1c[nH]c2ccccc12.O=C(O)C(F)(F)F.O=C(O)C(F)(F)F` [Compound 12b] yielded an IC50 at 20 h of more than 43 µM.
Regarding `O=C(NCCCNCCCCCCCNCCCNC(=O)c1c[nH]c2ccccc12)c1c[nH]c2ccccc12.O=C(O)C(F)(F)F.O=C(O)C(F)(F)F` [Compound 12c], the IC50 at 20 h is more than 42 µM.

The subject of a further data set is human red blood cells. Put plainly: Hemolytic assay. Format: cell-based. The conditions noted are these: 10% hemolytic activity, mean n = 2. On the procedure: Human whole blood was washed three times with three volumes of 0.9% NaCl and then resuspended in the same solution to a concentration of 0.5 × 10^8 cells/mL, as determined by the manual cell count in a Neubauer hemocytometer. The washed cells were then added to the 384-well compound-containing plates for a final volume of 50 μL. After a 10 min shake on a plate shaker, the plates were then incubated for 1 h at 37 °C. After incubation, the plates were centrifuged at 1000× g for 10 min to pellet cells and debris; 25 μL of the supernatant was then transferred to a polystyrene 384-well assay plate. Hemolysis was determined by measuring the supernatant absorbance at […] (OD405). The absorbance was measured using a Tecan M1000 Pro monochromator plate reader. HC10 and HC50 (concentrations at 10% and 50% hemolysis, respectively) were calculated by a curve fitting the inhibition values vs. log (concentration) using a sigmoidal dose–response function with variable fitting values for the top, bottom, and slope.
`O=C(NCCCNCCCCCCNCCCNC(=O)c1c[nH]c2ccccc12)c1c[nH]c2ccccc12.O=C(O)C(F)(F)F.O=C(O)C(F)(F)F` [Compound 12b]: the “Hemolysis HC10” value was more than 43 µM.
As for `O=C(NCCCNCCCCCCCNCCCNC(=O)c1c[nH]c2ccccc12)c1c[nH]c2ccccc12.O=C(O)C(F)(F)F.O=C(O)C(F)(F)F` [Compound 12c], the “Hemolysis HC10” value is on record as more than 42 µM.

A further data set deals with E. coli ATCC 25922. The data set can be described thus: MIC, broth dilution, E. coli. Format: cell-based, Escherichia coli. The note with it: Escherichia coli, ATCC25922; E. coli ATCC 25922, 18 h.
The compound `O=C(NCCCNCCCCCCNCCCNC(=O)c1c[nH]c2ccccc12)c1c[nH]c2ccccc12.O=C(O)C(F)(F)F.O=C(O)C(F)(F)F` [Compound 12b] gave an MIC of 134 µM.
As for `O=C(NCCCNCCCCCCCNCCCNC(=O)c1c[nH]c2ccccc12)c1c[nH]c2ccccc12.O=C(O)C(F)(F)F.O=C(O)C(F)(F)F` [Compound 12c], the MIC amounted to 65.9 µM.

The next data set concerns E. coli ATCC 25922. The data set can be described thus: Erythromycin potentiation against E. coli. The conditions noted are these: erythromycin at 2 µg/mL (2.7 µM), E. coli. Format: cell-based, Escherichia coli. The text has this:
(§1) These measurements were independently repeated in triplicate.
As for `O=C(NCCCNCCCCCCNCCCNC(=O)c1c[nH]c2ccccc12)c1c[nH]c2ccccc12.O=C(O)C(F)(F)F.O=C(O)C(F)(F)F` [Compound 12b], the “Erythro/Ec fold-change (intrinsic MIC / combination MIC)” value is reported as 4 fold.
On to `O=C(NCCCNCCCCCCCNCCCNC(=O)c1c[nH]c2ccccc12)c1c[nH]c2ccccc12.O=C(O)C(F)(F)F.O=C(O)C(F)(F)F` [Compound 12c], for which the “Erythro/Ec fold-change (intrinsic MIC / combination MIC)” value came to 1 fold.

Still in this data set, the particulars now being: erythromycin at 2 µg/mL (2.7 µM), mean n = 3.
As for `O=C(NCCCNCCCCCCNCCCNC(=O)c1c[nH]c2ccccc12)c1c[nH]c2ccccc12.O=C(O)C(F)(F)F.O=C(O)C(F)(F)F` [Compound 12b], the “Erythro/Ec: concentration required to restore erythromycin activity (combination MIC)” value came out at 33.6 µM.
As to `O=C(NCCCNCCCCCCCNCCCNC(=O)c1c[nH]c2ccccc12)c1c[nH]c2ccccc12.O=C(O)C(F)(F)F.O=C(O)C(F)(F)F` [Compound 12c], the “Erythro/Ec: concentration required to restore erythromycin activity (combination MIC)” value is recorded as 65.9 µM.

The next data set deals with C. albicans ATCC 90028. The data set can be described thus: Antifungal MIC (CO-ADD), C. albicans. Format: cell-based. The conditions noted are these: Candida albicans, ATCC90028, top dose 32 µg/mL. On the procedure:
(§2) For the antifungal assay, fungi strains were cultured for 3 days on YPD agar at 30 °C. A yeast suspension of 1 × 10^6 to 5 × 10^6 CFU/mL was prepared from five colonies. These stock suspensions were diluted with a yeast nitrogen base (YNB) (Becton Dickinson, 233520, New South Wales, Australia) broth to a final concentration of 2.5 × 10^3 CFU/mL. […] The plates were covered and incubated at 35 °C for 36 h without shaking. C. albicans MICs were determined by measuring the absorbance at OD530. For C. neoformans, resazurin was added at a 0.006% final concentration to each well and incubated for a further 3 h before the MICs were determined by measuring the absorbance at OD570–600. […] Fluconazole was used as a positive fungal inhibitor standard for C. albicans and C. neoformans. […] The quality control (QC) of the assays was determined by the antimicrobial controls and the Z′-factor (using positive and negative controls).
Turning to `O=C(NCCCNCCCCCCNCCCNC(=O)c1c[nH]c2ccccc12)c1c[nH]c2ccccc12.O=C(O)C(F)(F)F.O=C(O)C(F)(F)F` [Compound 12b], the MIC was more than 43 µM.
`O=C(NCCCNCCCCCCCNCCCNC(=O)c1c[nH]c2ccccc12)c1c[nH]c2ccccc12.O=C(O)C(F)(F)F.O=C(O)C(F)(F)F` [Compound 12c] gave an MIC of more than 42 µM.

The next data set relates to C. neoformans ATCC 208821. Put plainly: Antifungal MIC (CO-ADD), C. neoformans. It is filed as cell-based. The note with it: Cryptococcus neoformans, ATCC208821, top dose 32 µg/mL. On the procedure:
as §2
For the compound `O=C(NCCCNCCCCCCNCCCNC(=O)c1c[nH]c2ccccc12)c1c[nH]c2ccccc12.O=C(O)C(F)(F)F.O=C(O)C(F)(F)F` [Compound 12b], the MIC was not above 0.34 µM.
On to `O=C(NCCCNCCCCCCCNCCCNC(=O)c1c[nH]c2ccccc12)c1c[nH]c2ccccc12.O=C(O)C(F)(F)F.O=C(O)C(F)(F)F` [Compound 12c], for which the MIC is not above 0.33 µM.

Another data set concerns S. aureus ATCC 25923. The data set can be described thus: MIC, broth dilution, S. aureus. Format: cell-based, Staphylococcus aureus. The note with it: Staphylococcus aureus, ATCC25923; S. aureus ATCC 25923, 18 h; read-out: MIC Sa.
In the case of `O=C(NCCCNCCCCCCNCCCNC(=O)c1c[nH]c2ccccc12)c1c[nH]c2ccccc12.O=C(O)C(F)(F)F.O=C(O)C(F)(F)F` [Compound 12b], the MIC stood at 268 µM.
Still for that read-out and setting: the figure for `O=C(NCCCNCCCCCCCNCCCNC(=O)c1c[nH]c2ccccc12)c1c[nH]c2ccccc12.O=C(O)C(F)(F)F.O=C(O)C(F)(F)F` [Compound 12c] is 132 µM.

The subject of the next data set is P. aeruginosa ATCC 27853. Put plainly: Doxycycline potentiation against P. aeruginosa. Format: cell-based, Pseudomonas aeruginosa. The note with it: doxycycline at 2 µg/mL (4.5 µM), P. aeruginosa ATCC 27853.
Source text: as §1
Consider `O=C(NCCCNCCCCCCNCCCNC(=O)c1c[nH]c2ccccc12)c1c[nH]c2ccccc12.O=C(O)C(F)(F)F.O=C(O)C(F)(F)F` [Compound 12b], for which the “Dox/Pa fold-change (intrinsic MIC / combination MIC)” value is listed as more than 8 fold.
Same read-out and setting: the figure for `O=C(NCCCNCCCCCCCNCCCNC(=O)c1c[nH]c2ccccc12)c1c[nH]c2ccccc12.O=C(O)C(F)(F)F.O=C(O)C(F)(F)F` [Compound 12c] is more than 4 fold.

The data set is the same for the next values; noted with them: doxycycline at 2 µg/mL (4.5 µM), P. aeruginosa ATCC 27853, mean n = 3.
With `O=C(NCCCNCCCCCCNCCCNC(=O)c1c[nH]c2ccccc12)c1c[nH]c2ccccc12.O=C(O)C(F)(F)F.O=C(O)C(F)(F)F` [Compound 12b], the “Dox/Pa: concentration required to restore doxycycline activity (combination MIC)” value is 33.6 µM.
Turning to `O=C(NCCCNCCCCCCCNCCCNC(=O)c1c[nH]c2ccccc12)c1c[nH]c2ccccc12.O=C(O)C(F)(F)F.O=C(O)C(F)(F)F` [Compound 12c], the “Dox/Pa: concentration required to restore doxycycline activity (combination MIC)” value turned out to be 65.9 µM.

The subject of the next data set is A. baumannii ATCC 19606. The data set can be described thus: MIC, broth microdilution (CO-ADD), A. baumannii. The conditions noted are these: Acinetobacter baumannii, ATCC19606, top dose 32 µg/mL. Format: cell-based, Acinetobacter baumannii.
`O=C(NCCCNCCCCCCNCCCNC(=O)c1c[nH]c2ccccc12)c1c[nH]c2ccccc12.O=C(O)C(F)(F)F.O=C(O)C(F)(F)F` [Compound 12b]: the MIC was more than 43 µM.
On to `O=C(NCCCNCCCCCCCNCCCNC(=O)c1c[nH]c2ccccc12)c1c[nH]c2ccccc12.O=C(O)C(F)(F)F.O=C(O)C(F)(F)F` [Compound 12c], for which the MIC was more than 42 µM.

The next data set relates to P. aeruginosa ATCC 27853. The data set can be described thus: MIC, broth dilution, P. aeruginosa. Format: cell-based, Pseudomonas aeruginosa. The note with it: Pseudomonas aeruginosa, ATCC27853; P. aeruginosa ATCC 27853, 18 h; read-out: MIC Pa.
In the case of `O=C(NCCCNCCCCCCNCCCNC(=O)c1c[nH]c2ccccc12)c1c[nH]c2ccccc12.O=C(O)C(F)(F)F.O=C(O)C(F)(F)F` [Compound 12b], the MIC is more than 268 µM.
As for `O=C(NCCCNCCCCCCCNCCCNC(=O)c1c[nH]c2ccccc12)c1c[nH]c2ccccc12.O=C(O)C(F)(F)F.O=C(O)C(F)(F)F` [Compound 12c], the MIC is more than 263 µM.

The values above are taken from article PMC10967822, “Antimicrobial Indole-3-Carboxamido-Polyamine Conjugates Target Bacterial Membranes and Are Antibiotic Potentiators” (Biomolecules, 2024).
